# Results as given in US20040116436A1, “Treatment of dementia and parkinson's disease” (priority 2002, published 2004).
# Like-named read-outs stand apart in the source and are kept apart here.
# Legend:
# [1] = From the text: 30 C57B1/B6 type mice (8-12 weeks old) are allowed to acclimate for 12-14 days before experimental use.
# alpha 1A receptor = alpha 1A receptor (Homo sapiens, UniProt P35348); details: RSAT assay; alpha 2 subtypes versus alpha 1A
# [2] = system: dopaminergic neurons in the ventral tegmental area; details: MPTP mice; brimonidine 3 mg/kg/day
# [3] = system: dopaminergic neurons in the substantia nigra
# alpha 2B receptor = alpha 2B receptor (Homo sapiens, UniProt P18089); test: cell-based
# From the text: (§1) In contrast, a method for measuring alpha receptor agonist selectivity comprises the RSAT (Receptor Selection and Amplification Technology) assay as reported in Messier et al., High Throughput Assays Of Cloned Adrenergic, Muscarinic, Neurokinin And Neurotrophin Receptors In Living Mammalian Cells, Pharmacol. Toxicol. 76:308-11 (1995) and has been adapted for use with alpha 2 receptors. This publication is incorporated by reference herein. The assay measures a receptor-mediated loss of contact inhibition that results in selective proliferation of receptor-containing cells in a mixed population of confluent cells. The increase in cell number is assessed with an appropriate transfected marker gene such as b-galactosidase, the activity of which can be easily measured in a 96-well format. Receptors that activate the G protein, Gq, elicit this response. Alpha2 receptors, which normally couple to Gi, activate the RSAT response when coexpressed with a hybrid Gq protein that has a Gi receptor recognition domain, called Gq/i5^2. See Conklin et al., Substitution Of Three Amino Acids Switches Receptor Specificity Of Gqa To That Of Gia, Nature 363:274-6. (1993) This reference is hereby incorporated by reference herein.
# (§2) The data presented below was collected using the RSAT assay described above.
# (§3) Efficacy of a given receptor or receptor subtype in accordance with the present invention is determined using the RSAT assay procedure described above.
# alpha 2C receptor = alpha 2C receptor (Homo sapiens, UniProt P18825); test: cell-based
# From the text: as §1, §2, §3
# [4] = in vivo, ip
SMILES,"Open Field activity versus vehicle + MPTP group ([1]; 10 and 30 days post MPTP, brimonidine 3 mg/kg/day)","forelimb extension impairment, tail hang test ([1]; during the period that the compound is administered)","forelimb extension impairment, tail hang test ([1]; post-dosing (after 14 days of compound administration))",greater activity at each alpha 2 receptor subtype than at the alpha 1A receptor (alpha 1A receptor),reduction of MPTP-induced neuron loss in the Ventral Tegmental area [2],"neuron loss in the substantia nigra versus MPTP-treated animals ([3]; MPTP mice, brimonidine 3 mg/kg/day)","Average Neuron Count (statistical error) ([3]; substantia nigra, TH-labeled neurons, 55-60 days post MPTP 40 mg/kg sc, brimonidine 3 mg/kg/day sc mini-pump 14 days)",EC50 (alpha 2B receptor),EC50 (alpha 2C receptor),concentration at which sedative effect first becomes noticeable [4]
"Brc1c(NC2=NCCN2)ccc2nccnc12 [Brimonidine, brimonidine]",no significant difference between this group and the vehicle group,does not reduce this impairment,does tend to reduce the impairment,at least 5.5 fold,about 10%,significantly less neuron loss,32 (±1),,,
"Cc1cccc([C@H](C)c2cnc[nH]2)c1C [Dexmedetomidine, dexmedetomidine]",,,,,,,,2 nM,1 nM,
"Clc1ccc2nsnc2c1NC1=NCCN1 [Tizanidine, tizanidine]",,,,,,,,127 nM,1690 nM,about 100 micrograms/kg
